Data set [1] is described as follows: storage stability at 40° C. and 75% relative humidity. The data set is classed as physicochemical. The following applies: stored at 40° C. and 75% relative humidity for up to four weeks. As to the method:
Instead, the melting of Form I is observed to recrystallize to another, metastable form having a melting point of about 172.5° C.

Data set [2] is described as follows: water solubility at 25° C. The data set is classed as physicochemical. The conditions noted are these: aqueous.

As to `CC(C)C[C@](C)(N)COc1ccc(-c2ccnc(C(F)F)c2)nc1C(F)F` [Compound K, ((S)-1-((2′,6-bis(difluoromethyl)-[2,4′-bipyridin]-5-yl)oxy)-2,4-dimethylpentan-2-aminiumdihydrogen phosphate], the “stability of form, morphology and purity on storage” value in data set [1] is given as “neither the form itself, its morphology, nor its purity changed”. As a reminder, the solubility is the dissolved amount per volume that the medium holds. High values mean much dissolved substance, low ones little dissolved substance. Turning to `CC(C)C[C@](C)(N)COc1ccc(-c2ccnc(C(F)F)c2)nc1C(F)F.Cl` [Compound S, (S)-1-((2′,6-bis(difluoromethyl)-[2,4′-bipyridin]-5-yl)oxy)-2,4-dimethylpentan-2-amine hydrochloride], in data set [2], the solubility worked out at 2900 µg/mL.
